Experiments:
[1] = target: T1, cytochrome c oxidase (CcO, complex IV) bearing the COX4-1 regulatory subunit (Homo sapiens, UniProt P00395+P13073); assay: CcO activity and Michaelis-Menten kinetics in mitochondrial extracts; type: biochemical
T1 construct: gene COX4I1; CcO in mitochondrial extracts of UTMZ, U251-TgCOX4-1 (FLAG-tagged COX4-1) and GSC (J × 12, J × 39) cells; with COX1 and the other CcO subunits

[2] = target: T2, cytochrome c oxidase (CcO, complex IV), purified from bovine heart; COX4-1 the most abundant COX4 isoform (Bos taurus, UniProt P00396+P00423); assay: inhibition of purified CcO activity, dose-response; type: biochemical
T2 construct: gene COX4I1; purified CcO from bovine heart (Sigma-Aldrich C5499), whole multi-subunit complex; with COX1 and the other CcO subunits

T1 sequence (P00414 whole entry): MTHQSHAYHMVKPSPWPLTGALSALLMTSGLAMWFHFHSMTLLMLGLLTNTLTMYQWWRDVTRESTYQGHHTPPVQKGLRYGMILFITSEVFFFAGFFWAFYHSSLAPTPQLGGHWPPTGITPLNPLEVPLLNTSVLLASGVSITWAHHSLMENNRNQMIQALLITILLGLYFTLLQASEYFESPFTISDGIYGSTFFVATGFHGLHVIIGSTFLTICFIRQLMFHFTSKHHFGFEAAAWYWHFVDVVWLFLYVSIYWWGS
T1 sequence (P00403 whole entry, further chain): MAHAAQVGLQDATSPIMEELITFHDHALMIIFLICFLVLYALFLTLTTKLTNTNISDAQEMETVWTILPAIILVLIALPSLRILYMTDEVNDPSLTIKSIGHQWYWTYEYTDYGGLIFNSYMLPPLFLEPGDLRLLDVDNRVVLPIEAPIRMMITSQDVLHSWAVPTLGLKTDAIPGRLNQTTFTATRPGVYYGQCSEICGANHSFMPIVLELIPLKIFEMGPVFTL
T1 sequence (P13073 23-169): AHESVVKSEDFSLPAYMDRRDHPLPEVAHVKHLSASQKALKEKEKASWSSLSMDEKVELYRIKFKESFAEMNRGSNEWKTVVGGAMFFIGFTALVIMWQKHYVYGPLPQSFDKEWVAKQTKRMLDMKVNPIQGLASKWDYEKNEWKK

What does the source list for `CN(C)CCCN1c2ccccc2Sc2ccc(Cl)cc21` [CPZ, Chlorpromazine]?
IC50 [1]: ~2 µM; IC50 [2]: 25.8 ± 3.75 µM
